biological target: Bifunctional protein GlmU (Escherichia coli (strain K12), UniProt P0ACC7); test: Inhibition of Escherichia coli GlmU acetyltransferase activity assessed as coenzyme A production using acetyl CoA substrate
Sequence (P0ACC7 whole entry): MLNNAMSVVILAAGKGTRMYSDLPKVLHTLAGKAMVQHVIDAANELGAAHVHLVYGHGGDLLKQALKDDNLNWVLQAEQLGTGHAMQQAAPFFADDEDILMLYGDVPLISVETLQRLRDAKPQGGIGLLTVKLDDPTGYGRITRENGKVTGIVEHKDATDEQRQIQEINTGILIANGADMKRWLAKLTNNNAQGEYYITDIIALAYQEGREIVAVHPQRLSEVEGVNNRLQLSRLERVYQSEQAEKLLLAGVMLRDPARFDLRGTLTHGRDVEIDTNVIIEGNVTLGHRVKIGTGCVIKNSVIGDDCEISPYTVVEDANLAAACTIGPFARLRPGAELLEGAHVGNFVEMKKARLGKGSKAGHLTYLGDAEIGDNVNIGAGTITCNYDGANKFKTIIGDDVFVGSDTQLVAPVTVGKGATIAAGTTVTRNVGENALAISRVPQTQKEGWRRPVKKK

SMILES | IC50
COc1cc(OC)c(S(=O)(=O)N2c3ccccc3Oc3ccccc32)cc1NC(=O)CCC(=O)O | 10 nM
COc1cc(OC)c(S(=O)(=O)N2c3ccccc3CC[C@H]2C)cc1NC(=O)COC(C)=O | 2000 nM
COc1cc(OC)c(S(=O)(=O)N(c2ccc(C)cc2)c2ccc(C)cc2)cc1NC(=O)CCC(=O)O | 40 nM
CCN(c1ccccc1C)S(=O)(=O)c1cc(NC(C)=O)c(OC)cc1OC | 15000 nM
COc1cc(OC)c(S(=O)(=O)N2c3ccccc3Oc3ccccc32)cc1NC(=O)[C@H]1[C@@H](C)[C@H]1C(=O)O | 30 nM
COc1cc(OC)c(S(=O)(=O)N2CCCC[C@@H]2C)cc1NC(C)=O | 130000 nM
COc1cc(O)c(S(=O)(=O)N2c3ccccc3CC[C@H]2C)cc1NC(=O)CCC(=O)O | 50 nM
COc1cc(OC)c(S(=O)(=O)NCc2ccccc2N2CCC(COC(=O)CCC(=O)O)CC2)cc1NC(=O)CCC(=O)O | 250 nM
COc1cc(OC)c(S(=O)(=O)N(c2ccccc2)C(C)C)cc1NC(C)=O | 2000 nM
COc1cc(OC)c(S(=O)(=O)Nc2ccc(C)cc2)cc1NC(C)=O | 21000 nM
COc1cc(OC)c(S(=O)(=O)N2c3ccccc3CC[C@H]2C)cc1NC(=S)NCC(=O)O | 500 nM
COc1cc(OC)c(S(=O)(=O)NCc2ccccc2N2CCC(CC(=O)O)CC2)cc1NC(=O)CCC(=O)O | 400 nM
COc1cc(O)c(S(=O)(=O)N2c3ccccc3CC[C@H]2C)cc1NC(=O)[C@H]1[C@H](C)[C@H]1C(=O)O | 480 nM
COc1cc(OC)c(S(=O)(=O)NCc2ccccc2CC(=O)O)cc1NC(C)=O | 15000 nM
COc1cc(OC)c(S(=O)(=O)N(c2ccccc2)c2ccc(N)cc2)cc1NC(=O)CCC(=O)O | 20 nM
COc1cc(OC)c(S(=O)(=O)NCc2ccccc2N2CCC(CO)CC2)cc1NC(C)=O | 40000 nM
COc1cc(OC)c(S(=O)(=O)N2c3ccccc3CC[C@H]2C)cc1NC(C)=O | 1500 nM
COc1cc(OC)c(S(=O)(=O)N(C)c2ccccc2)cc1NC(C)=O | 3000 nM
COc1cc(OC)c(S(=O)(=O)N2c3ccccc3CC[C@H]2C)cc1NC(=O)CSc1ccncc1 | 1000 nM
COc1cc(OC)c(S(=O)(=O)N2c3ccccc3CC[C@@H]2C)cc1NC(=O)/C=C/C(=O)O | 500 nM
COc1cc(OC)c(S(=O)(=O)N2c3ccccc3CC[C@@H]2C)cc1NC(=O)Cc1ccnc(C#N)c1 | 680 nM
COc1cc(OC)c(S(=O)(=O)N2c3ccccc3CC[C@@H]2C)cc1NC(=O)COCC(=O)O | 200 nM
COc1cc(OC)c(S(=O)(=O)N2c3ccccc3CC[C@@H]2C)cc1NC(=O)c1ccccc1 | 200000 nM
COc1cc(OC)c(S(=O)(=O)NCc2ccc3c(c2)OCO3)cc1NC(C)=O | 200000 nM
COc1cc(OC)c(S(=O)(=O)Nc2ccccc2F)cc1NC(C)=O | 5000 nM

The remaining lines, values ahead:

IC50 | SMILES
400 nM | COc1cc(OC)c(S(=O)(=O)N2c3ccccc3CC[C@@H]2C)cc1NC(=O)[C@@H]1[C@@H](C)[C@H]1C(=O)O
900 nM | COc1cc(OC)c(S(=O)(=O)NCc2ccccc2-c2ccc(C(=O)O)cc2)cc1NC(=O)CCC(=O)O
90 nM | COc1cc(OC)c(S(=O)(=O)N2c3ccccc3Oc3ccccc32)cc1NC(=O)Cc1ccnc(F)c1
10 nM | COc1cc(OC)c(S(=O)(=O)N2c3ccccc3Oc3ccccc32)cc1NC(=O)/C=C/C(=O)O
100 nM | COc1cc(OC)c(S(=O)(=O)N2c3ccccc3CC[C@H]2C)cc1NC(=O)CSCC(=O)O
4000 nM | COc1cc(OC)c(S(=O)(=O)NCc2ccccc2Br)cc1NC(C)=O
200000 nM | COc1cc(OC)c(S(=O)(=O)N2c3ccccc3CC[C@@H]2C)cc1NC(=O)COc1ccc(C(C)=O)cc1
100000 nM | COc1cc(OC)c(S(=O)(=O)N2c3ccccc3CC[C@H]2C)cc1NS(C)(=O)=O
800 nM | COc1cc(OC)c(S(=O)(=O)N2c3ccccc3CC[C@@H]2C)cc1NC(=O)Cc1ccnc(F)c1
15000 nM | COc1cc(OC)c(S(=O)(=O)Nc2cccc(F)c2)cc1NC(C)=O
10000 nM | COc1ccccc1CNS(=O)(=O)c1cc(NC(C)=O)c(OC)cc1OC
200000 nM | COc1cc(OC)c(S(=O)(=O)N(C)C)cc1NC(C)=O
60 nM | COc1cc(O)c(S(=O)(=O)N2c3ccccc3Oc3ccccc32)cc1NC(=O)[C@H]1[C@H](C)[C@@H]1C(=O)O
90 nM | COc1cc(OC)c(S(=O)(=O)N2c3ccccc3CC[C@@H]2C)cc1NC(=O)CCC(=O)O
500 nM | COc1cc(OC)c(S(=O)(=O)N2c3ccccc3CC[C@H]2C)cc1NC(=O)NCC(=O)O
17000 nM | COc1cc(OC)c(S(=O)(=O)Nc2cccc(C)c2)cc1NC(C)=O
20000 nM | COc1cc(OC)c(S(=O)(=O)Nc2ccccc2)cc1NC(C)=O
3000 nM | COc1cc(OC)c(S(=O)(=O)NCc2ccccc2N2CCC(CO)CC2)cc1NC(=O)CCC(=O)O
30 nM | COc1cc(OC)c(S(=O)(=O)N2Cc3ccccc3Oc3ccccc32)cc1NC(=O)CCC(=O)O
80000 nM | COc1cc(OC)c(S(=O)(=O)N2CCCCC2)cc1NC(C)=O

biological target: Bifunctional protein GlmU (Escherichia coli (strain K12)) (UniProt P0ACC7); test: Inhibition of Escherichia coli GlmU acetyltransferase activity assessed as coenzyme A production using acetyl CoA substrate at 100 uM
Sequence (P0ACC7 whole entry, looked up): as the sequence (P0ACC7 whole entry) above

SMILES | inhibition
CCn1c(C)c(-c2nc(C3CC3)no2)c(S(=O)(=O)NCC2CCCO2)c1C (stereo unspecified) | 21.1%
CCOC(=O)c1cc(S(=O)(=O)N2CCCC2C(=O)NC(C)(C)CC)cn1C (stereo unspecified) | 30.8%
COc1ccc(Cl)cc1N(CC(=O)O)S(=O)(=O)c1ccccc1 | 45.1%
O=C(Nc1nc(S(=O)(=O)Cc2ccccc2)ns1)c1ccccc1 | 15.8%
CCOC(=O)c1cc(S(=O)(=O)N2CCCC2C(=O)N2CCCC2)cn1C (stereo unspecified) | 7.99%
c1cncc(CNc2nnc(-c3nc(C4CC4)no3)c3ccccc23)c1 | 18.5%
COc1ccc(OC)c(N(CC(=O)O)S(=O)(=O)c2ccccc2)c1 | 42%
CCn1cc(C(=O)NCc2ccco2)c(S(=O)(=O)N2CCSCC2)n1 | 22.1%
Cc1cc(S(=O)(=O)C(CNC(=O)c2ccco2)c2ccco2)ccc1F (stereo unspecified) | 12.6%
COC(=O)c1cc(S(=O)(=O)Nc2ccc(C)cc2Cl)c[nH]1 | 5.22%
CCOC(=O)CC1(c2ccccc2)SC(NC(C)=O)=NN1C(C)=O (stereo unspecified) | 9.41%
CCOC(=O)c1cc(S(=O)(=O)N(C)CC(=O)Nc2ccc(F)cc2)cn1C | 11.9%
COc1ccc(S(=O)(=O)C(CNC(=O)c2ccccc2)c2ccco2)cc1 (stereo unspecified) | 17.1%
CCOC(=O)c1cc(S(=O)(=O)N(C)CC(=O)Nc2ccc(C)cn2)cn1C | 14.3%
CN1C(C(=O)NCC2CCCO2)=CC(c2ccco2)=NS1(=O)=O (stereo unspecified) | 28.6%
O=S(=O)(Nc1cc(F)cc(F)c1)c1c[nH]c2ncccc12 | 14.8%
Cc1cc(SCC(=O)c2ccc(O)cc2O)ncn1 | 20.9%
CCCN1C=NS(=O)(=O)c2cc(C(=O)Nc3ccccc3F)ccc21 | 20.1%
O=S(=O)(c1ccccc1)c1nc(-c2ccco2)oc1NCCCn1ccnc1 | 20.7%
O=S(=O)(c1ccccc1)c1nc(-c2ccsc2)oc1NCC1CCCO1 (stereo unspecified) | 13.3%
O=C(CN1c2cccc3cccc(c23)S1(=O)=O)Nc1ccc(F)c(F)c1 | 28.4%

SMILES | inhibition
CC(=O)Cc1nsc(NC(=O)C2(C)Cc3ccccc3C(=O)O2)n1 (stereo unspecified) | 24.6%
COc1ccc(-c2cnc(C)o2)cc1S(=O)(=O)Nc1cccc(Cl)c1 | 40.6%
Cc1nc2c(c(SCC(=O)c3ccc(O)cc3O)n1)CCC2 | 25.9%
Cc1ccc(C)c(NS(=O)(=O)c2ccc(-c3nnc(C(C)C)o3)o2)c1 | 34.4%
CC(C)C(=O)N1CCCc2cc(NS(=O)(=O)c3cccc(F)c3)ccc21 | 82.9%
COC(=O)c1cc(S(=O)(=O)Nc2cccc(SC)c2)c[nH]1 | 5.65%
Cc1ccc(S(=O)(=O)n2ccn(C(=O)C(C)Oc3ccccc3)c2=O)cc1 (stereo unspecified) | 11.1%
O=S(=O)(NCc1cccnc1)c1ccc(-c2ccno2)o1 | 44.7%
O=C(Nc1nonc1-c1ccccc1)C1COc2ccccc2O1 (stereo unspecified) | 17.5%
COc1cc(NS(=O)(=O)c2c[nH]c3ncccc23)cc(OC)c1 | 19.3%
CSc1cccc(NS(=O)(=O)c2cc3c(cc2Cl)NC(=O)CO3)c1 | 68.7%
CCc1ccccc1NS(=O)(=O)c1ccc(-c2ccc(=O)[nH]n2)o1 | 9.82%
CCOC(=O)COc1ccccc1/C=C1\N=C(SCC)SC1=O | 45.3%
O=S(=O)(c1cc(-c2nnc(C3CCCC3)o2)co1)N1CCc2ccccc2C1 | 32.3%
COc1cc(Nc2c(-c3ccccc3)c(=O)c2=O)cc(OC)c1 | 40%
O=S(=O)(Nc1ccc(F)c(F)c1)c1c[nH]c2ncccc12 | 25.9%
CCOC(=O)c1c(S(=O)(=O)NCC(=O)Nc2cccnc2)c(C)n(C)c1C | 16.2%
COc1ccc(-c2cnc(C)o2)cc1S(=O)(=O)Nc1cccc(F)c1 | 36%
CCOc1ccc(OCC)c(Nc2c(-c3ccccc3)c(=O)c2=O)c1 | 16.8%
O=S(=O)(NCc1ccccn1)c1ccc(-c2ccno2)o1 | 30.6%
COc1ccc(C2SCC(=O)Nc3[nH]nc(C)c32)c(OC)c1OC (stereo unspecified) | 20.5%

Next, values leading:

inhibition | SMILES
16.5% | CCOC(=O)c1c(C)[nH]c(C)c1S(=O)(=O)NCC(=O)Nc1cccnc1
18.4% | O=C(CSC1=NS(=O)(=O)c2ccccc2N1)OCc1ccccc1
25.5% | COC(=O)C1CN(C(=O)C(C)Oc2ccccc2F)c2ccccc2O1 (stereo unspecified)
29.2% | CCOc1ccc(OCC)c(NS(=O)(=O)c2ccc3c(c2)N(C)CCO3)c1
16.8% | O=S(=O)(Nc1cc(F)ccc1F)c1c[nH]c2ncccc12
19.8% | O=C(CN1c2ccc(F)cc2-c2ccccc2S1(=O)=O)Nc1cccnc1
12% | COCCNC(=O)c1ccccc1NS(=O)(=O)c1ccc2c(c1)OCCO2
10.3% | CCOC(=O)c1cc(S(=O)(=O)N2CCCC2C(=O)NC(C)C)cn1C (stereo unspecified)
15.2% | CCOC(=O)c1c(S(=O)(=O)NCC(=O)Nc2ccccc2)c(C)n(C)c1C
28.1% | Cc1nn(-c2ccccc2)c(O)c1/C=N/NC(=O)C(O)c1ccccc1 (stereo unspecified)
25.1% | O=C(NCCN1CCCC1)C1=C2CCCN2c2ccc(F)cc2S1(=O)=O
21.1% | COc1ccccc1NS(=O)(=O)c1cc(-c2cnc(C3CC3)o2)ccc1C
3.74% | COC(=O)c1cc(S(=O)(=O)Nc2cccc(Cl)c2C)c[nH]1
28.6% | CC(Sc1nnc(O)nc1O)C(=O)OCc1ccccc1 (stereo unspecified)

Reference: ChEMBL document CHEMBL3414535, “Identification and optimization of Escherichia coli GlmU inhibitors: an in silico approach with validation thereof” (Eur J Med Chem, 2015)
